Assay results published in patent US20170290801A1 (Hill's Pet Nutrition, Inc., priority 2009, published 2017).

Test: in vivo
Design: species or system dogs
Conditions: dog; for AUC0-infinity / AUC(0-inf): po; for AUC(0-inf): AUC0-infinity
Description: The control food without ALA is fed throughout the study period. The analytical results of the foods fed in this study are in Table 1. A three period Latin square design was used to create a 3×3 factorial arrangement of treatments with dogs assigned to a group following a planned treatment assignment. […] Pharmacokinetic parameters are calculated using a non-compartmental model and analyzed using non-parametric tests of WinNonlin 4.1 in SAS v9.]. There was a significant effect of dose for all delivery methods (P<0.05). […]

elimination half life, co-manufactured food compared with capsule: greater | maximum serum concentrations, effect of delivery method: lower maximum serum concentrations | total area under the curve, co-manufactured food compared with capsule: greater | AUC0-infinity (12.5 mg/kg): 92215 ng·min/mL | AUC(0-inf) (12.5 mg/kg): 1240 ng·h/mL | AUC0-infinity (25 mg/kg): 227304 ng·min/mL | AUC(0-inf) (25 mg/kg): 3580 ng·h/mL
SMILES: O=C(O)CCCCC1CCSS1 (racemic) [lipoic acid, dl-alpha-lipoic acid]
